Test results as given in patent publication US20210113498A1, “TOPICAL AND TRANSDERMAL DELIVERY OF AN IRON CHELATOR TO PREVENT AND TREAT CHRONIC WOUNDS” (TAUTONA GROUP IP HOLDING COMPANY, L.L.C., priority 2018, published 2021).

Assays:
HbSS BERK mice = test: Excisional wound healing in sickle cell mice; type: in vivo, mouse; settings: 6 mm full-thickness excisional wounds, daily treatment, mean±s.e.m., in days
Text: The proposed mechanism for healing was investigated using a sickle cell mouse study (Rodrigues et al. publication pending). In this study, transgenic sickle cell mouse model, HbSS-BERK, were used to determine the effectiveness of DIDP. […] They recapitulate human sickle cell disease including hemolysis, reticulocytosis, anemia, extensive organ damage, shortened life span and pain.
Mice. […] These mice simulate human sickle cell disease including hemolysis, reticulocytosis, anemia, extensive organ damage, shortened life span and pain26-28. HbSS-BERK mice were bred and phenotyped for human sickle hemoglobin. Genotyping for the knockout and hemoglobin transgenes was performed. Control mice (wild type) on a C57/Bl6 background [#000664] were also obtained.
DFO delivery device. A transdermal delivery system was used to deliver DFO into the dermal tissue of the mice. […]
Excisional wound healing. Five-month old male HbSS BERK and wild type mice were subjected to a quantitative and reproducible model of excisional wounding using an established protocol described in Galioano et al., Wound Repair Regen 12, 485-492, doi:10.1111/j.1067-1927.2004.12404.x (2004). […]
Wound treatment. […] Wound area was measured using Image J software (NIH). […]

[1] = type: in vitro ADME, human
Text: To study the capacity of an intradermal patch comprising an iron chelator, such as DFO, to deliver DFO into human dermis, a vertical Franz Diffusion Cell (FIG. 8) was used to evaluate the DIDP. Full thickness human skin samples obtained under Stanford University IRB approval were mounted between the two compartments of the diffusion cell with the stratum corneum facing the donor compartment. The DIDP was applied and isotonic phosphate buffer solution agitated with a magnetic stirrer and maintained at 37° C. by a circulating water jacket. Every hour, over the course of 15 hours, skin samples were removed, washed with phosphate buffer saline (PBS) and dried with an absorbent towel. The skin samples were frozen at −20° C. and cut with a microtome into 20 μm sections. The samples were analyzed for drug content spectrophotometrically at 560 nm (Shimadzu, Japan) and the relative DFO concentration was determined. Skin biopsies of the fresh full thickness skin samples used in the Franz cell experiment after DIDP application were processed for histology. Intracellular DFO-iron aggregates were made visible using ferrocyanide staining via a modified Prussian blue reaction as described previously. Skin samples were incubated overnight in 7% potassium ferrocyanide dissolved in 3% hydrochloric acid. […]

[2] = systemic delivery (subcutaneous, intravenous, intramuscular) within approved dose limits; cited from earlier work

Human skin permeation (stratum corneum / dermal accumulation) [1]: no permeation of the stratum corneum
SMILES: CC(=O)N(O)CCCCCNC(=O)CCC(=O)N(O)CCCCCNC(=O)CCC(=O)N(O)CCCCCN [DFO, deferoxamine]
Time to complete wound closure (HbSS BERK mice): 14.5 ± 0.6268 | Toxicity in adult or pediatric patients [2]: no evidence of toxicity
